Results taken from PMC9730589, “Characterization of a novel AA3_1 xylooligosaccharide dehydrogenase from Thermothelomyces myriococcoides CBS 398.93” (Biotechnology for Biofuels and Bioproducts, 2022).

Test system: T1, TmXdhA
T1 construct: native full gene from cDNA (578 residues, GMC dehydrogenase domain only, no cytochrome or CBM1); ORF start MQTASKL by primer; SEC-purified, contaminated with an A. niger hydrolase (A0A370CB09)
Assay: spectrophotometric reduction of […],4-benzoquinone at […] nm, Michaelis-Menten fit
Assay type: biochemical, Thermothelomyces myriococcoides
Conditions: 1 mM 1,4-benzoquinone, 50 mM ammonium acetate pH 5.5, 30 °C

| Compound | Km |
| --- | --- |
| OC[C@H]1O[C@@H](O[C@H]2[C@H](O)[C@@H](O)C(O)O[C@@H]2CO)[C@H](O)[C@@H](O)[C@@H]1O (stereo partly drawn) [C2, Cellobiose] | 360 ± 40 µM |
| OC[C@H]1O[C@@H](O[C@H]2[C@H](O)[C@@H](O)[C@H](O[C@H]3[C@H](O)[C@@H](O)C(O)O[C@@H]3CO)O[C@@H]2CO)[C@H](O)[C@@H](O)[C@@H]1O (stereo partly drawn) [C3, Cellotriose] | 430 ± 40 µM |
| OC[C@H]1O[C@@H](O[C@H]2[C@H](O)[C@@H](O)[C@H](O[C@H]3[C@H](O)[C@@H](O)[C@H](O[C@H]4[C@H](O)[C@@H](O)C(O)O[C@@H]4CO)O[C@@H]3CO)O[C@@H]2CO)[C@H](O)[C@@H](O)[C@@H]1O (stereo partly drawn) [C4, Cellotetraose] | 530 ± 40 µM |
| OC1OC[C@@H](O[C@@H]2OC[C@@H](O)[C@H](O)[C@H]2O)[C@H](O)[C@H]1O (stereo partly drawn) [X2, Xylobiose] | 160 ± 10 µM |
| OC1OC[C@@H](O[C@@H]2OC[C@@H](O[C@@H]3OC[C@@H](O)[C@H](O)[C@H]3O)[C@H](O)[C@H]2O)[C@H](O)[C@H]1O (stereo partly drawn) [X3, Xylotriose] | 110 ± 10 µM |
| OC1OC[C@@H](O[C@@H]2OC[C@@H](O[C@@H]3OC[C@@H](O[C@@H]4OC[C@@H](O)[C@H](O)[C@H]4O)[C@H](O)[C@H]3O)[C@H](O)[C@H]2O)[C@H](O)[C@H]1O (stereo partly drawn) [X4, Xylotetraose] | 130 ± 10 µM |
